The values below come from PubChem BioAssay AID790 (SRMLSC, 2007).

As usually defined, the IC50 is the concentration needed to halve the response being measured.

Assay [1] is described as follows: growth inhibition of yeast vps1Δ mutant, dose response, S. cerevisiae, background strain comparison (AID 790). To be noted: S. cerevisiae vps1Δ mutant growth inhibition; measured here: background strain growth inhibition.
The subject of assay [2] is S. cerevisiae vps1Δ mutant growth inhibition. The description is as above.

Active and inactive are the calls of the source. No rule for the calls is given here. A value given as a limit tells only on which side of the number the result lay.

With `CCCC(=O)N1CCN(c2ccc(NC(=O)c3cc4ccccc4o3)cc2Cl)CC1`, the IC50 in assay [1] was 19.2 µM; in assay [2], > 10 µM (inactive).
For `O=C(COc1ccc(Cl)cc1)Nc1ccc(N2CCN(C(=O)c3ccco3)CC2)cc1`, in that order: > 10 µM and > 10 µM (inactive).
For `Cc1cccc2cc(C#N)c(NCCCn3ccnc3)nc12`, in that order: > 10 µM and > 10 µM (inactive).
In the same order, the values of `CCOC(=O)c1ccc(NC(=O)c2ccc(CN3CCOCC3)cc2)cc1` are > 10 µM and > 10 µM (inactive).
With `CCC(=O)N(CCO)Cc1cc2ccc(C)c(C)c2[nH]c1=O`, the IC50 in assay [1] is > 10 µM; in assay [2] it was > 10 µM (inactive).
In the same order, the values of `Cc1ccc(Cl)c(OCCCCN(C)Cc2ccccc2)c1` are > 10 µM and > 10 µM (inactive).
As to `O=c1c2c3c(sc2ncn1/N=C/c1ccc([N+](=O)[O-])o1)CCCC3`, the figures for the IC50 in assay [1] and in assay [2] were 1.59 µM and 2.19 µM (inactive), respectively.
On to `C=C(C)C1CC=C(CN2CCC(C(=O)OCC)CC2)CC1` (centres undefined), for which the IC50 in assay [1] was > 10 µM; in assay [2], > 10 µM (inactive).
In the same order, the values of `Cc1nc(NC(=O)c2ccccc2)sc1-c1csc(NCc2ccccc2)n1` are > 10 µM and 1.96 µM.
In the case of `COc1cc2[nH]c(=S)n(CCCN3CCOCC3)c(=O)c2cc1OC`, the IC50 in assay [1] was > 10 µM; in assay [2], > 10 µM (inactive).
For `CCCCCCCCNc1ncnc2ccccc12`, in that order: 14.8 µM and > 10 µM (inactive).
In the same order, the values of `CC(C)OC(=O)CSc1nnc(-c2ccc(Cl)cc2)n1N` are > 10 µM and > 10 µM (inactive).
In the same order, the values of `O=C(Nc1nnc(C2CC2)o1)c1ccc(S(=O)(=O)N2CCCc3ccccc32)cc1` are 3.17 µM and 11.9 µM (inactive).
For `Cc1ccc(-c2csc3nnc(SCC(=O)Nc4cccc(C)n4)n23)cc1`, the figures for the IC50 in assay [1] and in assay [2] were > 10 µM and > 10 µM (inactive), respectively.
For `CC1=CC(C)(C)Nc2ccc(OC(=O)CN3C(=O)c4cccc5cccc(c45)C3=O)cc21`, in that order: > 10 µM and > 10 µM (inactive).
For `O=C1OCC2=C1C(c1ccc(F)cc1)Sc1ccccc1N2` (centres undefined), in that order: > 10 µM and 14.4 µM.
In the same order, the values of `Cn1c(=O)cc(NCc2ccccc2)[nH]c1=O` are > 10 µM and > 10 µM (inactive).
As for `CS(=O)(=O)N1CCC(C(=O)NCCN2CCN(Cc3ccccc3)CC2)CC1`, the figures for the IC50 in assay [1] and in assay [2] were > 10 µM and > 10 µM (inactive), respectively.
For `Cc1cc(C)nc(N/N=C/C(Cl)=C/c2ccccc2)n1`, in that order: > 10 µM and > 10 µM (inactive).
In the same order, the values of `COc1cccc(NC(=O)C2CCCN2C(=O)OCc2ccccc2)c1` (centres undefined) are > 10 µM and > 10 µM (inactive).
With `COc1ccc(Nc2nc(N)nc(CSc3nnc(N)s3)n2)cc1`, the results for the IC50 in assay [1] and in assay [2] were > 10 µM and > 10 µM (inactive), respectively.
As to `Cc1ccc(S(=O)(=O)c2c(C)nn(C(C)(C)C)c2OC(=O)c2ccc(Br)o2)cc1`, the half-inhibitory concentration (IC50) is > 10 µM in assay [1] and > 10 µM (inactive) in assay [2].
As to `c1ccc(-c2ccc(-c3cnc4n3CCCCC4)cc2)cc1`, the IC50 in assay [1] is > 10 µM; in assay [2], > 10 µM (inactive).
For `O=c1c2cccc3c2c(nn1CN1CCOCC1)-c1ccccc1-3`, in that order: > 10 µM and > 10 µM (inactive).
Turning to `CCOC(=O)C(C)Oc1ccc2c(C)cc(=O)oc2c1C(C)=O` (centres undefined), the IC50 in assay [1] was > 10 µM; in assay [2], > 10 µM (inactive).
On to `COc1ccc(N2CCN(c3oc(-c4ccco4)nc3C#N)CC2)cc1`, for which the IC50 in assay [1] is > 10 µM; in assay [2] it was > 10 µM (inactive).
For the compound `CCCC(=O)Nc1ccc(Cl)c(NC(=O)c2cccnc2Cl)c1`, the 50% inhibitory concentration (IC50) is > 10 µM in assay [1] and > 10 µM (inactive) in assay [2].
Consider `O=C1c2cccc3c([N+](=O)[O-])ccc(c23)C(=O)N1c1ccc(Cl)cn1`, for which the values for the IC50 in assay [1] and in assay [2] were 6.08 µM and 8.74 µM (inactive), respectively.
In the same order, the values of `CCOc1ccc(-c2[nH]ncc2Oc2ccccc2OCC)c(O)c1` are 16 µM and 23.7 µM (inactive).
`CN1/C(=C/C2CC(=O)NC2=O)C(C)(C)c2ccccc21` (centres undefined): the half-inhibitory concentration (IC50) in assay [1] is > 10 µM; in assay [2], > 10 µM (inactive).
For `Cc1cc(NCCCN2CCOCC2)n2ncc(-c3ccc(Cl)cc3)c2n1`, in that order: > 10 µM and > 10 µM (inactive).
`CC1CC(C)CN(CC(C)(C)NS(=O)(=O)c2ccc(Cl)cc2)C1` (centres undefined): the IC50 is > 10 µM in assay [1] and > 10 µM (inactive) in assay [2].
For `O=C(COc1ccc(Cl)cc1Cl)NCCCN1CCOCC1`, the IC50 was > 10 µM in assay [1] and > 10 µM (inactive) in assay [2].
For `Cc1ccc(C)c(C(=O)NCc2ccncc2)c1`, in that order: > 10 µM and > 10 µM (inactive).
Take `O=[N+]([O-])c1cc(C(F)(F)F)ccc1N/N=C/c1cc2ccccc2nc1Cl`: the concentration for half-maximal inhibition (IC50) is > 10 µM in assay [1] and > 10 µM (inactive) in assay [2].
For the compound `Cn1nnc2cc(C(=O)Nc3cccnc3)ccc21`, the IC50 in assay [1] is > 10 µM; in assay [2], > 10 µM (inactive).
As for `Clc1ccc2[nH]c3c(NCC4CCCO4)ncnc3c2c1` (centres undefined), the IC50 in assay [1] is > 10 µM; in assay [2] it was > 10 µM (inactive).
Take `O=Cc1cc2ccccc2nc1SCc1ccc(Cl)cc1`: the IC50 in assay [1] is > 10 µM; in assay [2], > 10 µM (inactive).
As to `Cc1cc(OCC(F)(F)C(F)(F)C(F)(F)C(F)(F)C(F)(F)C(F)F)nc(N)n1`, the IC50 in assay [1] is > 10 µM; in assay [2], > 10 µM (inactive).
For `Cc1cc(C)n2nc(C(=O)NCc3ccccc3)cc2n1`, in that order: > 10 µM and > 10 µM (inactive).
For `O=C(NCc1ccc2c(c1)OCO2)C1CCCN1C(=O)Nc1ccccc1` (centres undefined), in that order: > 10 µM and > 10 µM (inactive).
As for `CC(=O)NC1C(c2nc3ccccc3s2)=C(c2ccccc2)C(=O)N1c1ccc(C)cc1` (centres undefined), the IC50 in assay [1] is 1.92 µM; in assay [2], 2.18 µM (inactive).
In the same order, the values of `CCn1c(-c2c[nH]c3ccccc23)n[nH]c1=S` are > 10 µM and > 10 µM (inactive).
`CCOc1cc(/C=C\[N+](=O)[O-])ccc1OCC(=O)Nc1ccccc1C`: the 50% inhibitory concentration (IC50) in assay [1] is > 10 µM; in assay [2], 25.4 µM.
In the same order, the values of `Cc1ccc(C(=O)c2c(NC(=O)c3ccncc3)sc3c2CCCC3)cc1` are > 10 µM and > 10 µM (inactive).
For the compound `N=c1nc(N)nc2n1NC(c1ccc(F)cc1)=CS2`, the results for the IC50 in assay [1] and in assay [2] were > 10 µM and > 10 µM (inactive), respectively.
In the same order, the values of `CCn1c(SCC(=O)N2CCCc3ccccc32)nnc1-c1ccco1` are > 10 µM and > 10 µM (inactive).
In the same order, the values of `CCN(CC)CCn1nc(C)nc1-c1ccccc1O` are > 10 µM and > 10 µM (inactive).
For `CC(C)Oc1ccc(/C(O)=C2/C(=O)C(=O)N(CCN(C)C)C2c2ccco2)cc1` (centres undefined), the results for the half-maximal inhibitory concentration (IC50) in assay [1] and in assay [2] were > 10 µM and > 10 µM (inactive), respectively.
In the same order, the values of `Cc1cccnc1Nc1nc(-c2ccccn2)cs1` are > 10 µM and 4.17 µM.
For the compound `Cc1cccc(CS(=O)(=O)Cc2ccc(C(=O)NCCCN3CCCC3)o2)c1`, the IC50 in assay [1] is > 10 µM; in assay [2] it was > 10 µM (inactive).
Turning to `Cc1ccc(C2N(c3ccc(Cl)c(Cl)c3)C(=O)C3CCCN32)o1` (centres undefined), the IC50 in assay [1] was > 10 µM; in assay [2], > 10 µM (inactive).
With `CCOC(=O)COc1ccccc1C1Nc2ccccc2C(=O)N1c1cccc(Cl)c1` (centres undefined), the 50% inhibitory concentration (IC50) was > 10 µM in assay [1] and > 10 µM (inactive) in assay [2].
As for `N#Cc1nc(COc2ccc(-c3ccccc3)cc2)oc1NCCCN1CCOCC1`, the IC50 in assay [1] was 15.4 µM; in assay [2], 21.4 µM (inactive).
In the same order, the values of `CCCCCOc1ccc(CN2CCOCC2)cc1Cl` are > 10 µM and > 10 µM (inactive).
On to `Cc1ccc(-n2cc3c(-c4cccc(Br)c4)nnc(C)c3n2)cc1`, for which the values for the IC50 in assay [1] and in assay [2] were 13.5 µM and 1.48 µM, respectively.
For `CCN1CCN(c2c(Cl)cccc2NC(=O)c2ccc(Br)o2)CC1`, in that order: > 10 µM and > 10 µM (inactive).
For `COc1ccc(/C=C2\SC(=S)N(NC(=O)c3csc4c3CCCC4)C2=O)cc1`, in that order: > 10 µM and > 10 µM (inactive).
For `CCCOc1ccccc1N/C(=N/c1nc(C)cc(C)n1)NC(=O)COc1ccc(OC)cc1`, the figures for the concentration for half-maximal inhibition (IC50) in assay [1] and in assay [2] were > 10 µM and > 10 µM (inactive), respectively.
For `O=[N+]([O-])c1ccc(N/N=C/c2c[nH]c3ccccc23)c(S(=O)(=O)Nc2ccc(Cl)cc2)c1`, in that order: 2.5 µM and 2.47 µM.
For the compound `CC(C)(C)n1nnnc1CN(Cc1cccnc1)Cc1ccccc1Cl`, the half-inhibitory concentration (IC50) in assay [1] was > 10 µM; in assay [2] it was > 10 µM (inactive).
For `O=C(NC1CCN(Cc2ccccc2)CC1)C1COc2ccccc2O1` (centres undefined), in that order: > 10 µM and > 10 µM (inactive).
For `CC(=O)c1ccc(N2CCN(C(=O)c3ccc(Br)cc3)CC2)c(F)c1`, in that order: 6.58 µM and 1.52 µM.
In the case of `Cc1cc(C)nc(NC(=O)CSc2nn(C)c(=S)s2)n1`, the IC50 in assay [1] is > 10 µM; in assay [2], > 10 µM (inactive).
For `C/C(=N\N=C(/N)SC1CC(=O)N(c2ccc(Cl)c(Cl)c2)C1=O)c1cccs1` (centres undefined), in that order: 5.98 µM and 4.46 µM.
For `O=C(O)c1ccc(N2CCCCC2)cc1`, in that order: > 10 µM and > 10 µM (inactive).
Turning to `COc1ccccc1N1CCN(CC(O)c2ccc3cc[nH]c3c2)CC1` (centres undefined), the concentration for half-maximal inhibition (IC50) was > 10 µM in assay [1] and > 10 µM (inactive) in assay [2].
